Reference: patent US20060069132A1, “Azolecarboxamide herbicides” (priority 2004, published 2006)

How the values were obtained:
redroot pigweed = test: Test A pre-/postemergence herbicide test; format: in vivo, Amaranthus retroflexus; settings: for Plant response rating, Pigweed: Postemergence; for Pigweed plant response rating: Preemergence
Outline: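 Visual injury scores on a 0–100 scale (100 = complete control) taken about ten days post-treatment in greenhouse against untreated controls; dash means no result. Treatments: preemergence soil spray and postemergence spray to runoff on one- to two-leaf plants 2 to 10 cm tall, surfactant-containing formulation.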

barnyardgrass = test: Test B pre-/postemergence herbicide test; format: in vivo, Echinochloa crus-galli
Outline: (§1)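 Response was scored visually 13 to 15 days after treatment against untreated greenhouse controls, 0 meaning no effect and 100 complete control. Formulations (solvent mixture plus surfactant) went onto soil after planting, onto foliage of 1- to 4-leaf plants, and onto 2-leaf plants in a flooded paddy set including rice and barnyardgrass.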

cocklebur = test: Test B pre-/postemergence herbicide test; format: in vivo, Xanthium strumarium
Outline: as §1

bermudagrass = test: Test C pre-/postemergence herbicide test; format: in vivo, Cynodon dactylon
Outline: (§2)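 Visual ratings on a 0–100 scale (100 = complete control) made versus untreated controls after 12 to 14 greenhouse days. Test chemicals, formulated in surfactant-containing non-phytotoxic solvent, applied preemergence to planted seeds or postemergence to 1- to 4-leaf plants (2 to 18 cm).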

Surinam grass = test: Test C pre-/postemergence herbicide test; format: in vivo, Urochloa decumbens; settings: for Surinam Grass plant response rating: 500 g ai/ha
Outline: as §2

morningglory = test: Test C pre-/postemergence herbicide test; format: in vivo, Ipomoea coccinea; parameters: key to Plant response rating, Morningglory: 0 = no effect, 100 = complete control; settings: for Morningglory plant response rating: 500 g ai/ha
Outline: as §2

pigweed = test: Test C pre-/postemergence herbicide test; format: in vivo, Amaranthus retroflexus; settings: for Pigweed plant response rating: 500 g ai/ha
Outline: as §2

[1] = 500 g ai/ha, 0 to 100 scale, 0 no effect, 100 complete control
[2] = 2000 g ai/ha, 0 to 100 scale, 0 no effect, 100 complete control
[3] = 500 g ai/ha, visual rating, 0 to 100 scale (0 no effect, 100 complete control)
[4] = Postemergence, 125 g ai/ha, scale 0 (no effect) to 100 (complete control)
[5] = Postemergence, 500 g ai/ha, visual rating after 13 to 15 days, scale 0 (no effect) to 100 (complete control)
[6] = Preemergence, 500 g ai/ha, scale 0 to 100
[7] = 250 g ai/ha, scale 0 to 100 (0 no effect, 100 complete control), visual, 12 to 14 days, preemergence
[8] = Postemergence, 125 g ai/ha, scale 0 to 100, 0 no effect, 100 complete control
[9] = Preemergence, 500 g ai/ha, scale 0 to 100, 0 no effect, 100 complete control
[10] = postemergence, 62 g ai/ha, scale 0 to 100
[11] = Postemergence, 250 g ai/ha, scale 0 to 100, 0 no effect, 100 complete control
[12] = Preemergence, scale 0 to 100, 0 no effect, 100 complete control
[13] = postemergence, 125 g ai/ha, scale 0 to 100
[14] = 31 g ai/ha, preemergence, scale 0 to 100
[15] = 125 g ai/ha, scale 0 (no effect) to 100 (complete control), visual, 12 to 14 days, preemergence
[16] = postemergence, 125 g ai/ha, visual rating, scale 0 (no effect) to 100 (complete control)
[17] = preemergence, 125 g ai/ha, 0 to 100 scale, 0 is no effect, 100 is complete control

C=Cn1nc(C(C)(C)C)cc1C(=O)Nc1cccc(C(=O)N(CC)CC)c1 [Compound 34]
Plant response rating, Pigweed (redroot pigweed; [1]): 90 | Plant response rating, Pigweed (redroot pigweed; [2]): 90 | Pigweed plant response rating (redroot pigweed; [3]): 100 | Pigweed plant response rating (redroot pigweed; [2]): 100 | Barnyardgrass plant response rating (barnyardgrass; [4]): 20 | Plant response rating, Barnyardgrass (barnyardgrass; [5]): 30 | Barnyardgrass plant response rating (barnyardgrass; [6]): 80 | Cocklebur plant response rating (cocklebur; [4]): 40 | Plant response rating, Cocklebur (cocklebur; [5]): 90 | Cocklebur plant response rating (cocklebur; [6]): 10 | Plant response rating (0 = no effect, 100 = complete control), Bermudagrass (bermudagrass; 62 g ai/ha, preemergence): 20 | Plant response rating, Bermudagrass (bermudagrass; 125 g ai/ha, scale 0-100, preemergence): 50 | Plant response rating, Bermudagrass (bermudagrass; [7]): 90 | Bermudagrass plant response rating (bermudagrass; Postemergence, 500 g ai/ha, scale 0 to 100): 50 | Plant response rating, Bermudagrass (bermudagrass; [8]): 40 | Bermudagrass plant response rating (bermudagrass; Postemergence, 250 g ai/ha, scale 0 to 100): 50 | Bermudagrass plant response rating (bermudagrass; [9]): 100 | Plant response rating, Bermudagrass (bermudagrass; [10]): 10 | Plant response rating (0 = no effect, 100 = complete control), Surinam Grass (Surinam grass; 62 g ai/ha, preemergence): 10 | Plant response rating, Surinam Grass (Surinam grass; [7]): 60 | Surinam Grass plant response rating (Surinam grass; Postemergence, scale 0 to 100): 70 | Plant response rating, Surinam Grass (Surinam grass; [11]): 50 | Surinam Grass plant response rating (Surinam grass; [12]): 70 | Plant response rating, Surinam Grass (Surinam grass; [13]): 30 | Plant response rating, Surinam Grass (Surinam grass; [10]): 20 | Plant response rating (0 = no effect, 100 = complete control), Morningglory (morningglory; 62 g ai/ha, preemergence): 0 | Plant response rating, Morningglory (morningglory; [7]): 0 | Morningglory plant response rating (morningglory; Postemergence, scale 0 to 100): 40 | Plant response rating, Morningglory (morningglory; [11]): 10 | Morningglory plant response rating (morningglory; [12]): 100 | Plant response rating, Morningglory (morningglory; [13]): 10 | Plant response rating, Morningglory (morningglory; [10]): 10 | Plant response rating (0 = no effect, 100 = complete control), Pigweed (pigweed; 62 g ai/ha, preemergence): 100 | Plant response rating, Pigweed (pigweed; [7]): 100 | Pigweed plant response rating (pigweed; Postemergence, scale 0 to 100): 100 | Plant response rating, Pigweed (pigweed; [11]): 100 | Pigweed plant response rating (pigweed; [12]): 100 | Plant response rating, Pigweed (pigweed; [13]): 100 | Plant response rating, Pigweed (pigweed; [10]): 100

CCNC(=O)c1cccc(NC(=O)c2cc(C(C)(C)C)nn2CCF)c1 [Compound 35]
Plant response rating, Pigweed (redroot pigweed; [1]): 85 | Plant response rating, Pigweed (redroot pigweed; [2]): 95 | Pigweed plant response rating (redroot pigweed; [3]): 100 | Pigweed plant response rating (redroot pigweed; [2]): 100 | Barnyardgrass plant response rating (barnyardgrass; [4]): 10 | Plant response rating, Barnyardgrass (barnyardgrass; [5]): 20 | Barnyardgrass plant response rating (barnyardgrass; [6]): 100 | Cocklebur plant response rating (cocklebur; [4]): 50 | Plant response rating, Cocklebur (cocklebur; [5]): 100 | Cocklebur plant response rating (cocklebur; [6]): 30 | Plant response rating, Bermudagrass (bermudagrass; 16 g ai/ha, scale 0 to 100, 0 no effect, 100 complete control, last section of Table C (species set of preemergence test)): 0 | Plant response rating, Bermudagrass (bermudagrass; [14]): 30 | Plant response rating (0 = no effect, 100 = complete control), Bermudagrass (bermudagrass; 62 g ai/ha, preemergence): 90 | Plant response rating, Bermudagrass (bermudagrass; [15]): 100 | Plant response rating, Bermudagrass (bermudagrass; [8]): 20 | Plant response rating, Bermudagrass (bermudagrass; postemergence, 16 g ai/ha, scale 0 to 100): 0 | Plant response rating, Bermudagrass (bermudagrass; [10]): 0 | Plant response rating, Surinam Grass (Surinam grass; [14]): 0 | Plant response rating (0 = no effect, 100 = complete control), Surinam Grass (Surinam grass; 62 g ai/ha, preemergence): 10 | Plant response rating, Surinam Grass (Surinam grass; [15]): 20 | Plant response rating, Surinam Grass (Surinam grass; [13]): 60 | Plant response rating, Surinam Grass (Surinam grass; [10]): 40 | Plant response rating, Morningglory (morningglory; [14]): 0 | Plant response rating (0 = no effect, 100 = complete control), Morningglory (morningglory; 62 g ai/ha, preemergence): 100 | Plant response rating, Morningglory (morningglory; [13]): 40 | Plant response rating, Morningglory (morningglory; [10]): 20 | Plant response rating, Pigweed (pigweed; [14]): 0 | Plant response rating (0 = no effect, 100 = complete control), Pigweed (pigweed; 62 g ai/ha, preemergence): 90 | Plant response rating, Pigweed (pigweed; [15]): 100 | Plant response rating, Pigweed (pigweed; [13]): 100 | Plant response rating, Pigweed (pigweed; [10]): 100

CCn1nc(C(C)(C)C)cc1C(=O)Nc1cccc(C(=O)NC2CC2)c1 [Compound 44]
Plant response rating, Pigweed (redroot pigweed; [1]): 100 | Plant response rating, Pigweed (redroot pigweed; [2]): 100 | Pigweed plant response rating (redroot pigweed; [3]): 100 | Pigweed plant response rating (redroot pigweed; [2]): 100 | Barnyardgrass plant response rating (barnyardgrass; [4]): 20 | Plant response rating, Barnyardgrass (barnyardgrass; [5]): 60 | Barnyardgrass plant response rating (barnyardgrass; [6]): 100 | Cocklebur plant response rating (cocklebur; [4]): 40 | Plant response rating, Cocklebur (cocklebur; [5]): 80 | Cocklebur plant response rating (cocklebur; [6]): 20 | Plant response rating (0 = no effect, 100 = complete control), Bermudagrass (bermudagrass; 62 g ai/ha, preemergence): 0 | Plant response rating, Bermudagrass (bermudagrass; [7]): 20 | Plant response rating, Bermudagrass (bermudagrass; [8]): 90 | Plant response rating (0 = no effect, 100 = complete control), Surinam Grass (Surinam grass; 62 g ai/ha, preemergence): 10 | Plant response rating, Surinam Grass (Surinam grass; [15]): 10 | Plant response rating, Surinam Grass (Surinam grass; [7]): 10 | Plant response rating, Surinam Grass (Surinam grass; [11]): 40 | Plant response rating, Surinam Grass (Surinam grass; [10]): 40 | Plant response rating (0 = no effect, 100 = complete control), Morningglory (morningglory; 62 g ai/ha, preemergence): 0 | Plant response rating, Morningglory (morningglory; [15]): 0 | Plant response rating, Morningglory (morningglory; [7]): 0 | Plant response rating, Morningglory (morningglory; [11]): 80 | Plant response rating, Morningglory (morningglory; [10]): 50 | Plant response rating (0 = no effect, 100 = complete control), Pigweed (pigweed; 62 g ai/ha, preemergence): 10 | Plant response rating, Pigweed (pigweed; [15]): 70 | Plant response rating, Pigweed (pigweed; [7]): 90 | Plant response rating, Pigweed (pigweed; [11]): 100 | Plant response rating, Pigweed (pigweed; [10]): 100

CCn1nc(C(C)(C)C)cc1C(=O)Nc1cccc(C(=O)NCC(C)C)c1 [Compound 61]
Plant response rating, Pigweed (redroot pigweed; [1]): 85 | Plant response rating, Pigweed (redroot pigweed; [2]): 95 | Pigweed plant response rating (redroot pigweed; [3]): 95 | Pigweed plant response rating (redroot pigweed; [2]): 65 | Plant response rating, Barnyardgrass (barnyardgrass; [5]): 30 | Barnyardgrass plant response rating (barnyardgrass; [6]): 60 | Barnyardgrass plant response rating (barnyardgrass; [16]): 20 | Plant response rating, Barnyardgrass (barnyardgrass; [17]): 20 | Plant response rating, Cocklebur (cocklebur; [5]): 100 | Cocklebur plant response rating (cocklebur; [6]): 0 | Cocklebur plant response rating (cocklebur; [16]): 60 | Plant response rating, Cocklebur (cocklebur; [17]): 0 | Plant response rating (0 = no effect, 100 = complete control), Bermudagrass (bermudagrass; 62 g ai/ha, preemergence): 10 | Plant response rating, Bermudagrass (bermudagrass; [15]): 70 | Plant response rating, Bermudagrass (bermudagrass; [7]): 80 | Bermudagrass plant response rating (bermudagrass; [9]): 95 | Plant response rating (0 = no effect, 100 = complete control), Surinam Grass (Surinam grass; 62 g ai/ha, preemergence): 0 | Plant response rating, Surinam Grass (Surinam grass; [15]): 0 | Plant response rating, Surinam Grass (Surinam grass; [7]): 5 | Surinam Grass plant response rating (Surinam grass; [12]): 5 | Plant response rating (0 = no effect, 100 = complete control), Morningglory (morningglory; 62 g ai/ha, preemergence): 0 | Plant response rating, Morningglory (morningglory; [15]): 0 | Plant response rating, Morningglory (morningglory; [7]): 5 | Morningglory plant response rating (morningglory; [12]): 100 | Plant response rating (0 = no effect, 100 = complete control), Pigweed (pigweed; 62 g ai/ha, preemergence): 0 | Plant response rating, Pigweed (pigweed; [15]): 95 | Plant response rating, Pigweed (pigweed; [7]): 95 | Pigweed plant response rating (pigweed; [12]): 95

CCn1nc(C(C)(C)C)cc1C(=O)Nc1cccc(C(=O)NCC2CC2)c1 [Compound 62]
Plant response rating, Pigweed (redroot pigweed; [1]): 100 | Plant response rating, Pigweed (redroot pigweed; [2]): 100 | Pigweed plant response rating (redroot pigweed; [3]): 100 | Pigweed plant response rating (redroot pigweed; [2]): 100 | Plant response rating, Barnyardgrass (barnyardgrass; [5]): 50 | Barnyardgrass plant response rating (barnyardgrass; [6]): 80 | Barnyardgrass plant response rating (barnyardgrass; [16]): 20 | Plant response rating, Barnyardgrass (barnyardgrass; [17]): 20 | Plant response rating, Cocklebur (cocklebur; [5]): 100 | Cocklebur plant response rating (cocklebur; [6]): 10 | Cocklebur plant response rating (cocklebur; [16]): 70 | Plant response rating, Cocklebur (cocklebur; [17]): 0 | Plant response rating, Bermudagrass (bermudagrass; [14]): 0 | Plant response rating (0 = no effect, 100 = complete control), Bermudagrass (bermudagrass; 62 g ai/ha, preemergence): 10 | Plant response rating, Bermudagrass (bermudagrass; [15]): 90 | Plant response rating, Bermudagrass (bermudagrass; [7]): 95 | Plant response rating, Surinam Grass (Surinam grass; [14]): 0 | Plant response rating (0 = no effect, 100 = complete control), Surinam Grass (Surinam grass; 62 g ai/ha, preemergence): 5 | Plant response rating, Surinam Grass (Surinam grass; [15]): 10 | Plant response rating, Surinam Grass (Surinam grass; [7]): 50 | Plant response rating, Morningglory (morningglory; [15]): 0 | Plant response rating, Morningglory (morningglory; [7]): 10 | Plant response rating, Pigweed (pigweed; [14]): 90 | Plant response rating (0 = no effect, 100 = complete control), Pigweed (pigweed; 62 g ai/ha, preemergence): 95 | Plant response rating, Pigweed (pigweed; [15]): 95 | Plant response rating, Pigweed (pigweed; [7]): 95
